Results published in US20170112792A1, “ENHANCED ATRA-RELATED COMPOUNDS DERIVED FROM STRUCTURE-ACTIVITY RELATIONSHIPS AND MODELING FOR INHIBITING PIN1” (Beth Israel Deaconess Medical Center, Inc., priority 2014, published 2017).
Entries after “also recorded” stand apart in the source; their conditions may differ. Non-standard residues stand in square brackets, D forms with d. No end group written: not given here. d(pT) = C[C@H](OP(=O)(O)O)[C@@H](N)C(=O)O; Pip = O=C(O)[C@@H]1CCCCN1

Assays:
GST-cyclophilin = assay: chymotrypsin coupled PPlase activity assay, cyclophilin
GST-Pin1 [1] = molecular target: T1, GST-Pin1 (Homo sapiens, UniProt Q13526); assay: fluorescence polarization (FP) pTide competition assay / FP-HTS
Description: This sequence was optimized for solubility and binding to GST-PPI. […] Measurements of fluorescence polarization and fluorescence absorbance were made in black 384-well plates (Corning) using a Synergy II plate reader. Compounds were transferred to plates using a custom-built Seiko pin-transfer robot at the Institute for Chemistry and Cell Biology at Harvard Medical School. The assay can tolerate up to 10%/o DMSO.
Molecules that compete with pTide for binding to the active site, e.g., Pin1 substrates, were detected under equilibrium conditions. A Z score was used to identify and rank those molecules that were most competitive with pTide (e.g., that have higher binding affinity). A Z score is defined as Z=(x−μ)/σ, where x is a raw score, μ is the mean of the population, and σ is the standard deviation of the population. Molecules with the most negative Z scores represent those with the highest Pin1 binding affinity. The Z′ value for this assay was around 0.70 and was consistent for day-to-day performance, with a coefficient of variation in the range of 4-5%.
A lower value of Ki is indicative of higher association and, accordingly, higher affinity of the substrate to the protein.

GST-Pin1 [2] = molecular target: T1, GST-Pin1; assay: chymotrypsin coupled PPlase activity assay, Pin1; format: biochemical
Description: where Km is the Michaelis constant for the used substrate, S is the initial concentration of the substrate in the assay, and the IC50 value is of the inhibitor.

GST-FKBP12 = GST-FKBP12 (Homo sapiens, UniProt P62942); assay: chymotrypsin coupled PPlase activity assay, FKBP12; format: biochemical
[3] = cited from earlier work
[4] = system: human normal and breast cancer cell lines; assay: cell growth of human normal and breast cancer cell lines; format: cell-based
Description: (§1) Absorbance was determined at 570 nm.
To test this possibility, we chose breast cancer as a model due to the substantial oncogenic role of Pin1 in vitro and in vivo.

NB4 cells = assay: APL cell differentiation in NB4 cells (Giemsa, FACS CD14/CD11b); format: cell-based, human; conditions: 72 hours
[5] = system: Pin1 and PML-RARα in NB4 cells; assay: immunoblot of Pin1 and PML-RARα in APL NB4 cells; format: cell-based, human; conditions: for PML-RARα level in APL cells: 72 hours
Description: For immunoprecipitation and immunoblotting in the examples below, cells were polyethylenimine (PEI)- or lipofemamine-transfected with 8 μg of various plasmids, incubated in 10 cm dishes for 24 hours, and subsequently treatment with drugs as needed. […] After centrifugation at 13,000 g for 10 minutes, one tenth of the supernatant was stored as input, and the remainder was incubated 12 hours with M2 Flag agarose (Sigma). After brief centrifugation, immunoprecipitates were collected, extensively washed with the aforementioned lysis buffer twice, suspended in 2×SDS sample buffer (100 mM Tris-HCl, pH 6.8, 4% SDS, 5% β-mercaptoethanol, 20% glycerol, and 0.1% bromphenol blue), boiled for 10 minutes, and subjected to immunoblotting analysis. […] After electrophoresis, gel was transferred to nitrocellulose membranes using a semidry transfer cell. The transblotted membrane was washed twice with Tris-buffered saline containing 0.1% Tween 20 (TBST). After blocking with TBST containing 5% bovine serum albumin (BSA) for 1 hour, the membrane was incubated with the appropriate primary antibody (diluted 1:1000) in 2% BSA-containing TBST at 4° C. overnight. After incubation with the primary antibody, the membrane was washed three times with TBST for a total of 30 minutes followed by incubation with horseradish peroxidase (HRP)-conjugated goat anti-rabbit or anti-mouse IgG (diluted 1:2500) for 1 hour at room temperature. After three extensive washes with TBST for a total of 30 minutes, the immunoblots were visualized by enhanced chemiluminescence.

human APL NB4 cells = assay: NB4 cell growth; format: cell-based; conditions: co-treatment with ATRA
Description: as §1

RAR = assay: transactivation of RAR downstream target genes
[6] = system: APL cells isolated from hCG-PML-RARα transgenic mice
[7] = system: vector control or Rab2A-overexpressing HMLEs; assay: BFA treatment of HMLE cells (ERGIC53 staining, Erk1/2 blots); format: cell-based, human; conditions: 10 μg/ml BFA
Description: To elucidate how Rab2A overexpression or its Q58H mutation activates Erk1/2, we first examined whether Rab2A co-localized with Erk1/2. HMLE cells were starved and then stimulated by EGF to induce Erk1/2 phosphorylation. […] Overexpressing Rab2A Q58H at levels similar to the endogenous level also activated and colocalized with Erk1/2 like overexpressing WT Rab2A at 3 times higher levels (FIGS. 45A and 46A). To determine where Rab2A or its Q58H mutant colocalized with Erk1/2 at the perinuclear region, we performed double immunostaining Rab2A and ERGIC53, an ER-Golgi intermediate compartment (ERGIC) marker. Both Rab2A and its Q58H mutant colocalized with Erk1/2 at the ERGIC (FIG. 45B). Thus, overexpressed Rab2A or its Q58H mutant co-localizes with Erk1/2 and promotes Erk1/2 activation at the ERGIC. To examine whether Rab2A's vesicular trafficking function is associated with Erk activation, we used brefeldin A (BFA) to block the trafficking from the ERGIC to ER because BFA dissociates ADP ribosylation factor (ARF) effectors from Golgi and ERGIC membranes, leading to block in both anterograde and retrograde transport.

T1 sequence (Q13526 whole entry): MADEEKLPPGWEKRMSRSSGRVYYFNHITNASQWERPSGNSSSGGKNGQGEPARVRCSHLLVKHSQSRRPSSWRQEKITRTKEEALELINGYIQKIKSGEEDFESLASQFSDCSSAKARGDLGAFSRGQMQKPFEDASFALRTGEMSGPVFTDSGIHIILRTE
Sequence of GST-FKBP12 (P62942 whole entry): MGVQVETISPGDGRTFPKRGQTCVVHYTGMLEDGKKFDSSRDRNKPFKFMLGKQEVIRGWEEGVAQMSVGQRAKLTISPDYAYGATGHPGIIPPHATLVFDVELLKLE

Compound: CC1=C(/C=C/C(C)=C/C=C/C(C)=C\C(=O)O)C(C)(C)CCC1 [13cRA, (2Z,4E,6E,8E)-3,7-dimethyl-9-(2,6,6-trimethylcyclohexen-1-yl)nona-2,4,6,8-tetraenoic acid]
- inhibition of cyclophilin (GST-cyclophilin): did not inhibit
- Ki (GST-Pin1 [1]): 1160 nM
- binding to Pin1 in FP assay after longer incubation (GST-Pin1 [1]; 24 hours incubation vs 0.5 hours): difference in binding between 13cRA and ATRA disappears after a longer incubation
- Z score in FP-HTS (GST-Pin1 [1]; ~8200 compounds screened, competition with pTide): lowest Z score
- inhibition of PPlase activity of Pin1 (GST-Pin1 [2]): fully inhibited
- Ki (GST-Pin1 [2]; Cheng-Prusoff equation, read-out: Ki from PPlase assay): 2370 nM
- inhibition of FKBP12 (GST-FKBP12): did not inhibit

Compound: Bth-D-phos.Thr-Pip-Nal ([Bth][d(pT)][Pip][Nal]) [pTide]
- binding selectivity (GST-Pin1 [1]; Pin1 PPlase domain vs WW domain vs FKBP12): selectively binds Pin1 at its PPlase domain and does not bind to the WW domain of Pin1 or to FKBP12
- cell permeability [3]: low cell permeability

Compound: COc1cc(C)c(/C=C/C(C)=C/C=C/C(C)=C/C(=O)O)c(C)c1C [acitretin]
- Pin1 binding in FP assay (GST-Pin1 [1]): moderate binding

Compound: CC(=O)OC/C=C(C)/C=C/C=C(C)/C=C/C1=C(C)CCCC1(C)C [retinyl acetate]
- Pin1 binding in FP assay (GST-Pin1 [1]): totally inactive

Compound: C=C(c1ccc(C(=O)O)cc1)c1cc2c(cc1C)C(C)(C)CCC2(C)C [bexarotene]
- Pin1 binding in FP assay (GST-Pin1 [1]): marginal binding; also recorded: less potent than ATRA

Compound: CC1=C(/C=C/C(C)=C/C=C/C(C)=C/C=O)C(C)(C)CCC1 [retinal]
- Pin1 binding in FP assay (GST-Pin1 [1]): totally inactive

Compound: CC1(C)CCC(C)(C)c2cc(NC(=O)c3ccc(C(=O)O)cc3)ccc21 [tamibarotene]
- Pin1 binding in FP assay (GST-Pin1 [1]): moderate binding

Compound: Clc1cccc(C(c2ccc3[nH]cnc3c2)n2ccnc2)c1 (stereo not shown) [liarazole]
- combination effect with ATRA on inhibition of cell proliferation ([4]; AU565 or SKBR3 cells): generally additive effects with ATRA

Compound: CCOC(=O)CN1C(=O)c2ccc3c4c(ccc(c24)C1=O)C(=O)N(CC(=O)OCC)C3=O [PiB]
- APL cell differentiation (NB4 cells): neither Pin1 inhibitors nor Pin1 KD induced APL cell differentiation
- Pin1 degradation in NB4 cells [5]: inhibited Pin1 without degrading it
- PML-RARα level in APL cells [5]: dose-dependently reduced PML-RARα

Compound: O=C(O)Cc1c[nH]c2ccccc12 [indo-3-acetic acid]
- Pin1 binding in FP assay (GST-Pin1 [1]): neither pravastatin nor indo-3-acetic acid demonstrated any binding

Compound: CCCCCCCOc1cc2c(cc1/C(C)=C/c1ccc(C(=O)O)cc1)C(C)(C)CCS2(=O)=O [Ro-415253]
- rescue of NB4 cell proliferation suppressed by ATRA (human APL NB4 cells): unable to rescue NB4 cell proliferation suppressed by ATRA
- Pin1 binding in FP assay (GST-Pin1 [1]): minimal Pin1 binding
- effect on the ability of ATRA to induce Pin1 degradation or inhibit cell growth ([4]; breast cancer cells (T47D)): no obvious effects
- restoration of ATRA-mediated Pin1 degradation ([5]; co-treatment with ATRA): unable to restore ATRA-mediated Pin1 degradation
- transactivation of RAR downstream target genes (RAR): suppresses it

Compound: O=C(O[C@@H]1Cc2c(O)cc(O)cc2O[C@@H]1c1cc(O)c(O)c(O)c1)c1cc(O)c(O)c(O)c1 [EGCG]
- APL cell differentiation (NB4 cells): neither Pin1 inhibitors nor Pin1 KD induced APL cell differentiation
- condition of treated mice (toxic effects) ([6]; mouse, in vivo): rather sick
- PML-RARα in the bone marrow ([6]; same regimens): effectively reduced PML-RARα
- spleen weights ([6]; same regimens): nearly at basal levels
- Pin1 degradation in NB4 cells [5]: inhibited Pin1 without degrading it
- PML-RARα level in APL cells [5]: dose-dependently reduced PML-RARα

Compound: CC1=C(/C=C/C(C)=C/C=C/C(C)=C/CO)C(C)(C)CCC1 [retinol]
- Pin1 binding in FP assay (GST-Pin1 [1]): totally inactive

Compound: CC1=C(/C=C/C(C)=C/C=C/C(C)=C/C(=O)Nc2ccc(O)cc2)C(C)(C)CCC1 [fenretinide]
- Pin1 binding in FP assay (GST-Pin1 [1]): less potent than ATRA

Compound: C[C@H]1CCC/C=C/[C@@H]2C[C@H](O)C[C@H]2[C@H](O)/C=C/C(=O)O1 [BFA, brefeldin A]
- Erk phosphorylation [7]: did not obviously affect Erk phosphorylation
- ERGIC structure (ERGIC53 staining) ([7]; 30 min): ERGIC structures were damaged
